{"source": "patent US20210308286A1", "about": "(The Johns Hopkins University, priority 2018, published 2021)", "key": {"PSMA+ PC3 PIP tumor": {"system": "PSMA+ PC3 PIP tumor", "assay": "In vivo PSMA inhibition with excess […], ex vivo tumor fluorescence", "parameters": "species or system athymic male nude mice", "settings": "15 nmol LC-Pyro intravenous, 24 hours post-injection"}, "PSMA+ PC3 PIP cells": {"system": "PSMA+ PC3 PIP cells", "format": "cell-based", "settings": "flow cytometry, time-dependent"}, "[1]": {"system": "PSMA+ PC3 PIP subcutaneous tumor"}, "PSMA [2]": {"biological_target": "T1, PSMA (Homo sapiens, UniProt Q04609)", "T1 construct": "The amount of glutamate released from NAAG hydrolysis by the LNCaP lysates was determined; endogenous in cells; host or cells: LNCaP cell lysate", "assay": "biochemical"}, "[3]": {"system": "PSMA+ (PC3-ML-1124) and PSMA− (PC3-ML-1117) metastatic nodules", "assay": "Fluorescence detection of prostate metastasis", "format": "in vivo, mice", "settings": "20 nmol via tail vein, 24 hours post-injection"}, "PSMA [4]": {"biological_target": "T1, PSMA", "assay": "Fluorescence-based PSMA inhibition assay (NAAG hydrolysis by LNCaP cell lysates, Amplex Red)", "format": "biochemical", "settings": "4 μM NAAG, Cheng-Prusoff conversion, n=3", "procedure": "Briefly, lysates of LNCaP cells (25 μL in 0.1 M Tris-HCl, pH 8.0) were incubated with the serial dilutions of the test compounds (in 12.5 μL of 0.1 M Tris-HCl, pH 8.0) in the presence of 4 μM N-acetylaspartylglutamate (NAAG) (in 12.5 μL of 0.1 M Tris-HCl, pH 8.0) for 120 minutes. The reaction mixtures were incubated with the working solution (50 μL) of the Amplex Red Glutamic Acid Kit (Molecular Probes Inc., Eugene, Oreg.) for 60 minutes. The amount of glutamate released from NAAG hydrolysis by the LNCaP lysates was determined by measuring the fluorescence generated from the reactions using the Cytation 5 plate reader (BioTek, Winooski, Vt.) with excitation at 545 nm and emission at 590 nm. […] Enzyme inhibitory constants (Ki values) were generated using the Cheng-Prusoff conversion. […] Data analysis was performed using GraphPad Prism software (n=3)."}, "[5]": {"system": "PSMA+ PC3 PIP and PSMA− PC3 flu subcutaneous tumors", "settings": "20 nmol intravenous; for tumor accumulation, whole-animal in vivo fluorescence imaging: 24 hours post-administration; for ex vivo organ distribution / clearance route: 24 hours, ex vivo fluorescence"}, "[6]": {"system": "PSMA+ PC3 PIP orthotopic prostate tumor", "assay": "^64Cu-LC-Pyro PET/CT and gamma-counting biodistribution, PSMA+ orthotopic model", "settings": "PSMA+ PC3 PIP orthotopic tumor mice, 24 hours post-injection, mean ± SD, n=4", "excerpt": "Organs of interest, including the tumor, prostate, seminal vesicles, testes, heart, spleen, lungs, liver, kidneys, adrenal, stomach, small intestine, large intestine, skin, fat, muscle, bone and brain were excised, washed in saline, dried with absorbent tissue, weighed, and counted on a gamma-counter Wizard® 1480 well-type automatic gamma counter (PerkinElmer Inc.; Shelton, Conn.). Radioactivity measured in each organ was decay-corrected and expressed as the percentage of the injected dose per gram of tissue (% ID/g)."}, "[7]": {"assay": "Plasma blood clearance (pharmacokinetics) after intravenous injection", "format": "in vivo, BALB/c mice", "settings": "for half-life: BALB/c, 20 nmol per animal, 20 nmol intravenous, plasma fluorescence over 48 hours, n=5"}, "[8]": {"system": "low-risk, localized prostate cancer", "settings": "vascular targeted PDT, cited from earlier work"}, "[9]": {"settings": "LC-Pyro+Laser group, 24 hours post-PDT"}}, "note": "Read-outs that look alike come from different tables or passages of the source. Non-standard residues stand in square brackets, D forms with d. Residues, ends and D or L forms follow the SMILES beside them. ξ: configuration not given here. *: point of attachment. X1 = C=Cc1c(C)c2cc3nc(c4c5[nH]c(cc6nc(cc1[nH]2)C(C)=C6CC)c(C)c5C(=O)C4)[C@@H](CCC(=O)*)[C@H]3C; X2 = O=C(O)CC[C@H](NC(=O)N[C@@H](CCCCNC(=O)CCCCCCC(=O)*)C(=O)O)C(=O)O; ξE = NC(CCC(=O)O)C(=O)O; ξD = NC(CC(=O)O)C(=O)O; ξK = NCCCCC(N)C(=O)O; ξV = CC(C)C(N)C(=O)O; ξS = NC(CO)C(=O)O"}
{"compound": "C=Cc1c(C)c2cc3nc(c4c5[nH]c(cc6nc(cc1[nH]2)C(C)=C6CC)c(C)c5C(=O)C4)[C@@H](CCC(=O)NCC(=O)NC(CC(=O)O)C(=O)NC(CCC(=O)O)C(=O)NC(C(=O)NC(CC(=O)O)C(=O)NCC(=O)NC(CO)C(=O)NCC(=O)NC(CCCCNC(=O)CCCCCCC(=O)NCCCC[C@H](NC(=O)N[C@@H](CCC(=O)O)C(=O)O)C(=O)O)C(N)=O)C(C)C)[C@H]3C", "note": "(some centres unmarked) [LC-Pyro] (X1-G[ξD][ξE][ξV][ξD]G[ξS]G[ξK](X2)-NH2; N-terminus and C-terminus assumed)", "values": [{"measurement": "accumulation in excised PSMA+ PC3 PIP tumors with DCIBzL (PSMA blocker) injected 30 minutes beforehand", "setting": "PSMA+ PC3 PIP tumor", "value": "less accumulation"}, {"measurement": "selectivity of uptake in PSMA+ PC3 PIP vs PSMA− PC3 flu cells", "setting": "PSMA+ PC3 PIP cells", "value": "nonselective cell-penetrating properties"}, {"measurement": "therapeutic effect without laser exposure", "setting": "[1]; LC-Pyro only, 50 nmol intravenous", "value": "No therapeutic effect"}, {"measurement": "skin phototoxicity upon daylight exposure", "setting": "[1]; LC-Pyro with no laser treatment, 50 nmol intravenous", "value": "no sign of skin phototoxicity"}, {"measurement": "body weight", "setting": "[1]; LC-Pyro+Laser group", "value": "no decrease in body weight"}, {"measurement": "H&E staining of tumor sections", "setting": "[1]; [9]", "value": "significant damage of tissue architecture"}, {"measurement": "TUNEL staining of tumor sections", "setting": "[1]; [9]", "value": "significant cell death"}, {"measurement": "tumor regrowth after day 22", "setting": "[1]; LC-Pyro+Laser group, n=4", "value": "tumor regrowth was observed in two animals"}, {"measurement": "residual or recurrent disease 44 days post-PDT", "setting": "[1]; LC-Pyro+Laser group, the two remaining animals", "value": "no signs of residual or recurrent disease"}, {"measurement": "tumor growth", "setting": "[1]; LC-Pyro+Laser: 30 nmol intravenous, 671-nm laser 100 J/cm^2 at 6 hours, single dose, n=4", "value": "significant tumor growth inhibition"}, {"measurement": "Ki", "setting": "PSMA [2]", "value": 0.088, "unit": "nM"}, {"measurement": "uptake in metastatic nodules, in situ fluorescence imaging", "setting": "[3]", "value": "selective uptake"}, {"measurement": "Ki inhibitory activity against PSMA", "setting": "PSMA [4]", "value": "sub-nanomolar"}, {"measurement": "tumor accumulation, whole-animal in vivo fluorescence imaging", "setting": "[5]", "value": "selective accumulation to the PSMA+ after 24 hours"}, {"measurement": "ex vivo organ distribution / clearance route", "setting": "[5]", "value": "liver and kidney clearance"}, {"measurement": "biodistribution, Tumor", "setting": "[6]", "value": 9.74, "unit": "% ID/g"}, {"measurement": "plasma circulation time, fold longer than SC-Pyro (single lysine linker analog)", "setting": "[7]; BALB/c mice, intravenous", "value": 8.5, "unit": "fold"}, {"measurement": "half-life", "setting": "[7]; mouse, in vivo, iv, read-out: t1/2, fast (plasma, two-compartment model) (converted)", "value": 30, "unit": "min"}, {"measurement": "half-life", "setting": "[7]; mouse, in vivo, iv, read-out: t1/2, slow (plasma half-life, two-compartment model) (converted)", "value": 600, "unit": "min"}]}
{"compound": "C=Cc1c(C)c2cc3nc(c4c5[nH]c(cc6nc(cc1[nH]2)C(C)=C6CC)c(C)c5C(=O)C4)[C@@H](CCC(=O)N[C@H](CCCCNC(=O)CCCCCCC(=O)NCCCC[C@H](NC(=O)N[C@@H](CCC(=O)O)C(=O)O)C(=O)O)C(N)=O)[C@H]3C", "note": "[SC-Pyro]", "values": [{"measurement": "Ki", "setting": "PSMA [2]", "value": 0.2, "unit": "nM"}]}
{"compound": "CC[C@H]1c2cc3[n-]c(c(CC(=O)OC)c4nc(cc5[n-]c(cc(n2)[C@@H]1C)c(C(C)=O)c5C)[C@@H](C)[C@@H]4CCC(=O)[O-])c(C(=O)NCCS(=O)(=O)[O-])c3C.[H+].[H+].[Pd+2]", "note": "[padeliporfin]", "values": [{"measurement": "patients with disease-free biopsy", "setting": "[8]; 28% with standard-of-care", "value": 49, "unit": "%"}, {"measurement": "percentage of patients with progressive disease", "setting": "[8]; 58% with standard-of-care", "value": 28, "unit": "%"}]}
{"compound": "C=Cc1c(C)c2cc3nc(c4c5[nH]c(cc6nc(cc1[nH]2)C(C)=C6CC)c(C)c5C(=O)C4)[C@@H](CCC(=O)N[C@H](CCCCNC(=O)CCCCCCC(=O)NCCCC[C@H](NC(=O)N[C@@H](CCC(=O)O)C(=O)O)C(=O)O)C(N)=O)[C@@H]3C", "note": "[SC-Pyro]", "values": [{"measurement": "Ki inhibitory activity against PSMA", "setting": "PSMA [4]", "value": "sub-nanomolar"}, {"measurement": "tumor accumulation, whole-animal in vivo fluorescence imaging", "setting": "[5]", "value": "negligible accumulation within both the PSMA− and PSMA+ tumors"}, {"measurement": "ex vivo organ distribution / clearance route", "setting": "[5]", "value": "metabolized and collected in the gallbladder"}, {"measurement": "t1/2, slow (plasma half-life, two-compartment model)", "setting": "[7]; mouse, in vivo, iv", "value": 1.17, "unit": "h"}]}
